From PubChem BioAssay (NCI)
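Five compound concentrations were applied to cells in 96-well plates for 48 hours; endpoints were derived by simple linear interpolation of the resulting dose-response curve. TGI denotes the concentration required for complete inhibition of growth.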

Tests used:
Assay in all cases: growth of human tumour cells (NCI), 48 h
HCT-116 colon = tested on: HCT-116 colon
KM12 colon = tested on: KM12 colon
SNB-75 CNS = tested on: SNB-75 CNS
COLO 205 colon = tested on: COLO 205 colon
DMS 114 small cell lung = tested on: DMS 114 small cell lung
786-0 renal = tested on: 786-0 renal
HOP-92 NSCLC = tested on: HOP-92 NSCLC
SN12C renal = tested on: SN12C renal
OVCAR-3 ovarian = tested on: OVCAR-3 ovarian
NCI-H460 lung = tested on: NCI-H460 lung
CCRF-CEM leukemia = tested on: CCRF-CEM leukemia
MOLT-4 leukemia = tested on: MOLT-4 leukemia
SK-OV-3 ovarian = tested on: SK-OV-3 ovarian
DLD-1 colon = tested on: DLD-1 colon
K-562 leukemia = tested on: K-562 leukemia
RXF 393 renal = tested on: RXF 393 renal
SR leukemia = tested on: SR leukemia
TK-10 renal = tested on: TK-10 renal
NCI-H226 lung = tested on: NCI-H226 lung
EKVX NSCLC = tested on: EKVX NSCLC
SK-MEL-28 melanoma = tested on: SK-MEL-28 melanoma
OVCAR-5 ovarian = tested on: OVCAR-5 ovarian
KM20L2 colon = tested on: KM20L2 colon
NCI-H522 lung = tested on: NCI-H522 lung
UACC-257 melanoma = tested on: UACC-257 melanoma
NCI-H23 lung = tested on: NCI-H23 lung
RPMI-8226 leukemia = tested on: RPMI-8226 leukemia
UO-31 renal = tested on: UO-31 renal
SNB-19 CNS = tested on: SNB-19 CNS
ACHN renal = tested on: ACHN renal
SW-620 colon = tested on: SW-620 colon
SK-MEL-5 melanoma = tested on: SK-MEL-5 melanoma
LOX IMVI melanoma = tested on: LOX IMVI melanoma
M19-MEL melanoma = tested on: M19-MEL melanoma
HL-60(TB) leukemia = tested on: HL-60(TB) leukemia
SK-MEL-2 melanoma = tested on: SK-MEL-2 melanoma
MALME-3M melanoma = tested on: MALME-3M melanoma
SNB-78 CNS = tested on: SNB-78 CNS
U251 CNS = tested on: U251 CNS
OVCAR-4 ovarian = tested on: OVCAR-4 ovarian
XF 498 CNS = tested on: XF 498 CNS
HT29 colon = tested on: HT29 colon
IGROV1 ovarian = tested on: IGROV1 ovarian
HOP-62 NSCLC = tested on: HOP-62 NSCLC
CAKI-1 renal = tested on: CAKI-1 renal
HCT-15 colon = tested on: HCT-15 colon
LXFL 529 NSCLC = tested on: LXFL 529 NSCLC
SF-539 CNS = tested on: SF-539 CNS
OVCAR-8 ovarian = tested on: OVCAR-8 ovarian
DMS 273 small cell lung = tested on: DMS 273 small cell lung
SF-268 CNS = tested on: SF-268 CNS
M14 melanoma = tested on: M14 melanoma
A549 NSCLC = tested on: A549 NSCLC
A498 renal = tested on: A498 renal
UACC-62 melanoma = tested on: UACC-62 melanoma
HCC-2998 colon = tested on: HCC-2998 colon
HOP-18 NSCLC = tested on: HOP-18 NSCLC
SF-295 CNS = tested on: SF-295 CNS

## CN1C(=S)CSc2ccccc21
HCT-116 colon
  TGI: > 100 µM
KM12 colon
  TGI: > 100 µM
SNB-75 CNS
  TGI: > 100 µM
COLO 205 colon
  TGI: > 100 µM
DMS 114 small cell lung
  TGI: > 100 µM
786-0 renal
  TGI: > 100 µM
HOP-92 NSCLC
  TGI: > 100 µM
SN12C renal
  TGI: > 100 µM
OVCAR-3 ovarian
  TGI: > 100 µM
NCI-H460 lung
  TGI: > 100 µM
CCRF-CEM leukemia
  TGI: > 100 µM
MOLT-4 leukemia
  TGI: > 100 µM
SK-OV-3 ovarian
  TGI: > 100 µM
DLD-1 colon
  TGI: > 100 µM
K-562 leukemia
  TGI: > 100 µM
RXF 393 renal
  TGI: > 100 µM
SR leukemia
  TGI: > 100 µM
TK-10 renal
  TGI: > 100 µM
NCI-H226 lung
  TGI: > 100 µM
EKVX NSCLC
  TGI: > 100 µM
SK-MEL-28 melanoma
  TGI: > 100 µM
OVCAR-5 ovarian
  TGI: > 100 µM
KM20L2 colon
  TGI: > 100 µM
NCI-H522 lung
  TGI: > 100 µM
UACC-257 melanoma
  TGI: > 100 µM
NCI-H23 lung
  TGI: > 100 µM
RPMI-8226 leukemia
  TGI: > 100 µM
UO-31 renal
  TGI: > 100 µM
SNB-19 CNS
  TGI: > 100 µM
ACHN renal
  TGI: > 100 µM
SW-620 colon
  TGI: > 100 µM
SK-MEL-5 melanoma
  TGI: > 100 µM
LOX IMVI melanoma
  TGI: > 100 µM
M19-MEL melanoma
  TGI: > 100 µM
HL-60(TB) leukemia
  TGI: > 100 µM
SK-MEL-2 melanoma
  TGI: > 100 µM
MALME-3M melanoma
  TGI: > 100 µM
SNB-78 CNS
  TGI: > 100 µM
U251 CNS
  TGI: > 100 µM
OVCAR-4 ovarian
  TGI: > 100 µM
XF 498 CNS
  TGI: > 100 µM
HT29 colon
  TGI: > 100 µM
IGROV1 ovarian
  TGI: > 100 µM
HOP-62 NSCLC
  TGI: > 100 µM
CAKI-1 renal
  TGI: > 100 µM
HCT-15 colon
  TGI: > 100 µM
LXFL 529 NSCLC
  TGI: > 100 µM
SF-539 CNS
  TGI: > 100 µM
OVCAR-8 ovarian
  TGI: > 100 µM
DMS 273 small cell lung
  TGI: > 100 µM
SF-268 CNS
  TGI: > 100 µM
M14 melanoma
  TGI: > 100 µM
A549 NSCLC
  TGI: > 100 µM

## O=C(O)CCC(=O)Oc1ccc(O)c2c1CCCC2=O
HCT-116 colon
  TGI: > 100 µM
KM12 colon
  TGI: > 100 µM
SNB-75 CNS
  TGI: > 100 µM
COLO 205 colon
  TGI: > 100 µM
DMS 114 small cell lung
  TGI: > 100 µM
786-0 renal
  TGI: > 100 µM
SN12C renal
  TGI: > 100 µM
OVCAR-3 ovarian
  TGI: > 100 µM
NCI-H460 lung
  TGI: > 100 µM
CCRF-CEM leukemia
  TGI: > 100 µM
MOLT-4 leukemia
  TGI: > 100 µM
SK-OV-3 ovarian
  TGI: > 100 µM
A498 renal
  TGI: > 100 µM
DLD-1 colon
  TGI: > 100 µM
K-562 leukemia
  TGI: > 100 µM
RXF 393 renal
  TGI: > 100 µM
SR leukemia
  TGI: > 100 µM
TK-10 renal
  TGI: > 100 µM
UACC-62 melanoma
  TGI: > 100 µM
HCC-2998 colon
  TGI: > 100 µM
NCI-H226 lung
  TGI: > 100 µM
EKVX NSCLC
  TGI: > 100 µM
SK-MEL-28 melanoma
  TGI: > 100 µM
OVCAR-5 ovarian
  TGI: > 100 µM
KM20L2 colon
  TGI: > 100 µM
NCI-H522 lung
  TGI: > 100 µM
UACC-257 melanoma
  TGI: > 100 µM
NCI-H23 lung
  TGI: > 100 µM
RPMI-8226 leukemia
  TGI: > 100 µM
UO-31 renal
  TGI: > 100 µM
SNB-19 CNS
  TGI: > 100 µM
ACHN renal
  TGI: > 100 µM
SW-620 colon
  TGI: > 100 µM
SK-MEL-5 melanoma
  TGI: > 100 µM
LOX IMVI melanoma
  TGI: > 100 µM
M19-MEL melanoma
  TGI: > 100 µM
HL-60(TB) leukemia
  TGI: > 100 µM
SK-MEL-2 melanoma
  TGI: > 100 µM
MALME-3M melanoma
  TGI: > 100 µM
HOP-18 NSCLC
  TGI: > 100 µM
SNB-78 CNS
  TGI: > 100 µM
U251 CNS
  TGI: > 100 µM
OVCAR-4 ovarian
  TGI: > 100 µM
SF-295 CNS
  TGI: > 100 µM
XF 498 CNS
  TGI: 5.84 µM
HT29 colon
  TGI: > 100 µM
IGROV1 ovarian
  TGI: > 100 µM
HOP-62 NSCLC
  TGI: > 100 µM
HCT-15 colon
  TGI: > 100 µM
LXFL 529 NSCLC
  TGI: > 100 µM
SF-539 CNS
  TGI: > 100 µM
OVCAR-8 ovarian
  TGI: > 100 µM
DMS 273 small cell lung
  TGI: > 100 µM
SF-268 CNS
  TGI: > 100 µM
M14 melanoma
  TGI: > 100 µM
A549 NSCLC
  TGI: > 100 µM
